Here are results for six compounds from ChEMBL document CHEMBL1141438, “Securinega alkaloids from the wood of Securinega suffruticosa var. amamiensis” (J Nat Prod, 2007).

One assay has as its system KB. Nature of the assay: Cytotoxicity against human KB cells. The format is functional, cell-based.
The next assay concerns L1210. Briefly: Cytotoxicity against mouse L1210 cells. The format is functional, cell-based.

Converted amounts (≈) assume the structure as drawn. A value given as a limit tells only on which side of the number the result lay.

By IC50 is commonly meant the concentration at which inhibition is half-maximal. High values mean weaker potency, low ones greater potency. With `CO[C@H]1CCN2O[C@@H]3C=CC4=CC(=O)O[C@]4(C3)[C@@H]2C1` [SECURINEGA AMAMINE D], the half-inhibitory concentration (IC50) in the assay on KB and in the assay with L1210 was over 5 µg/mL each time.

`CO[C@H]1CC2=CC(=O)O[C@@]23C[C@@H]1N1CCCC[C@@H]13` [SECURINEGA AMAMINE C]: the IC50 in the assay with KB and with L1210 was over 5 µg/mL in each case.

`O=C1C=C2C=C[C@@H]3C[C@@]2(O1)[C@@H]1CCCCN1O3` [PHYLLANTIDINE]: the IC50 in the assay on KB and in the assay with L1210 was over 5 µg/mL each time.

Turning to `CO[C@H]1CCN2[C@@H](C1)[C@]13C[C@H]2[C@@H](OC)CC1=CC(=O)O3` [SECURINEGA AMAMINE B], the half-maximal inhibitory concentration (IC50) in the assay on KB and with L1210 was over 5 µg/mL throughout.

For the compound `O=C1C=C2C=C[C@@H]3C[C@@]2(O1)[C@H]1CCCCN31` [SECURININE], the results for the IC50 in the assay on KB and with L1210 were 2.2 µg/mL (≈ 10.1 µM) and 1.9 µg/mL (≈ 8.74 µM), respectively.

As for `O=C1C=C2C=C[C@@H]3C[C@@]2(O1)[C@H]1C[C@@H](O)CCN31`, the IC50 was 3 µg/mL (≈ 12.9 µM) in the assay with KB and 3.7 µg/mL (≈ 15.9 µM) in the assay with L1210.
